Where “and” joins values, the source holds several entries; their conditions need not be identical. Equal entries are not always repeated.
How the values were obtained:
Assay in all cases: CTG-3D luminescence at 96 h relative to day-0 seeding control (ratio to day 0); higher = more growth / less cytotoxicity; PDxO 3D drug screen (set 2), 96 h, CTG-3D normalised to day-0 seeding control.
[1] = test system: HCI-001 (organoid from a triple-negative breast cancer xenograft)
[2] = test system: HCI-015 (organoid from a triple-negative breast cancer xenograft)
[3] = test system: HCI-012 (organoid from a breast cancer xenograft)
[4] = test system: HCI-010 (organoid from a breast cancer xenograft)
[5] = test system: HCI-003.E2 (organoid from an ER-positive breast cancer xenograft)
[6] = test system: HCI-005.E2 (organoid from a breast cancer xenograft with a HER2-positive history)
[7] = test system: MDA-MB-231

CS(=O)(=O)CCNCc1ccc(-c2ccc3ncnc(Nc4ccc(OCc5cccc(F)c5)c(Cl)c4)c3c2)o1 [lapatinib]
CTG-3D luminescence at 96 h
Details | 12.5 pM | 0.00025 µM | 0.005 µM | 0.1 µM | 1 µM | 10 µM | 100 µM | 625 fM
[1], days in culture: 365 | 2.34 | 2.26 | 2.24 | 2.56 | 1.9 | 1.3 | 0.109 | 1.46
[1], days in culture: 397 | 1.64 | 2.11 | 2.14 | 1.37 | 1.64 | 1.63 | 0.127 | 1.29
[1], days in culture: 401 | 1.46 | 1.83 | 1.73 | 1.59 | 1.25 | 1.44 | 0.0402 | 1.52
[2], days in culture: 333 | 1.35 | 1.46 | 1.34 | 1.08 | 0.661 | 0.251 | 0.00814 | 2.63
[2], days in culture: 355 | 3.61 | 3.24 | 1.08 | 1.64 | 1.45 | 0.567 | 0.0071 | 2.45
[2], days in culture: 369 | 2.34 | 1.5 | 2.2 | 1.6 | 2.32 | 0.511 | 0.0242 | 1.79
[3], days in culture: 214 | 2.69 | 3.04 | 1.24 | 2.07 | 1.18 | 0.474 | 0.0116 | 2.99
[3], days in culture: 243 | 2.16 | 2.36 | 2.03 | 2.3 | 1.73 | 1.17 | 0.00575 | 2.33
[3], days in culture: 256 | 1.96 | 2.5 | 2.14 | 2.69 | 1.63 | 1.22 | 0.0102 | 2.35
[3], days in culture: 284 | 1.64 | 2.45 | 1.64 | 2.11 | 1.41 | 0.504 | -0.00107 | 3.12
[4], days in culture: 79 | 1.89 | 1.81 | 2.03 | 2.16 | 2.02 | 0.69 | -0.00188 | 2.06
[4], days in culture: 86 | 2.21 | 2.38 | 2.53 | 2.49 | 2.33 | 0.631 | 0.0027 | 2.48
[4], days in culture: 102 | 1.1 | 1.16 | 1.11 | 1.32 | 1.48 | 0.154 | 8.25e-05 | 1.09
[4], days in culture: 164 | 1.78 | 1.5 | 1.5 | 1.46 | 1.78 | 0.353 | 0.000987 | 1.63

CTG-3D luminescence at 96 h
Details | 12.5 pM | 0.00025 µM | 0.005 µM | 0.1 µM | 1 µM | 10 µM | 100 µM | 625 fM
[5] | 2.53 | 2.41 | 2.48 | 2.27 | 1.77 | 0.0655 | 0.000467 | 2.95
[6] | 1.84 | 2.04 | 2.54 | 2.55 | 2.58 | 0.551 | 0.00117 | 2.11
[7] | 5.64 and 5.22 | 5.66 and 5.01 | 5.76 and 5.34 | 5.51 and 5.1 | 5.57 and 4.9 | – | 0.00446 and 0.0132 | 5.54 and 5.06

Nc1cc(C(F)(F)F)c(-c2cc(N3CCOCC3)nc(N3CCOCC3)n2)cn1 [buparlisib]
CTG-3D luminescence at 96 h
Details | 12.5 pM | 0.00025 µM | 0.005 µM | 0.1 µM | 1 µM | 10 µM | 100 µM | 625 fM
[1], days in culture: 365 | 3.09 | 2.29 | 2.5 | 3.19 | 1.82 | 0.687 | 0.646 | 1.89
[1], days in culture: 397 | 1.95 | 2.38 | 2.48 | 2.22 | 1.46 | 0.715 | 0.507 | 1.44
[1], days in culture: 401 | 1.47 | 1.87 | 1.41 | 1.86 | 1.11 | 0.572 | 0.512 | 1.76
[2], days in culture: 333 | 2.29 | 1.36 | 1.57 | 1.43 | 0.645 | 0.204 | 0.269 | 1.16
[2], days in culture: 355 | 1.31 | 3.75 | 1.42 | 1.76 | 0.946 | 0.466 | 0.46 | 2.06
[2], days in culture: 369 | 1.92 | 1.66 | 2.47 | 1.92 | 0.94 | 0.378 | 0.599 | 1.66
[3], days in culture: 214 | 1.75 | 3.34 | 1.48 | 2.51 | 1.02 | 0.314 | 0.0491 | 2.11
[3], days in culture: 243 | 1.8 | 2.97 | 2.35 | 2.4 | 1.59 | 0.242 | 0.0324 | 2.37
[3], days in culture: 256 | 2.19 | 2.45 | 2.12 | 2.99 | 1.05 | 0.138 | 0.0266 | 1.97
[3], days in culture: 284 | 1.86 | 2.37 | 1.96 | 2.4 | 1.3 | 0.282 | 0.0339 | 3.54
[4], days in culture: 79 | 1.69 | 1.83 | 1.84 | 1.83 | 1.02 | 0.456 | 0.0891 | 2
[4], days in culture: 86 | 2 | 2.29 | 2.49 | 2.33 | 1.36 | 0.525 | 0.146 | 2.19
[4], days in culture: 102 | 1.08 | 1.24 | 1.36 | 1.38 | 0.738 | 0.309 | 0.0336 | 0.982
[4], days in culture: 164 | 1.62 | 1.52 | 1.57 | 1.65 | 1.04 | 0.556 | 0.11 | 1.37

CTG-3D luminescence at 96 h
Details | 12.5 pM | 0.00025 µM | 0.005 µM | 0.1 µM | 1 µM | 10 µM | 100 µM | 625 fM
[5] | 2.55 | 2.29 | 2.6 | 2.53 | 0.705 | 0.037 | 0.0142 | 2.71
[6] | 1.84 | 2.58 | 2.64 | 3.03 | 1.45 | 0.703 | 0.594 | 2.11
[7] | 5.18 | 5.23 | 5.28 | 5.17 | 4.45 | 2.28 | 2.15 | 5.31

CO[C@H]1C[C@@H]2CC[C@@H](C)[C@@](O)(O2)C(=O)C(=O)N2CCCC[C@H]2C(=O)O[C@H]([C@H](C)C[C@@H]2CC[C@@H](O)[C@H](OC)C2)CC(=O)[C@H](C)/C=C(\C)[C@@H](O)[C@@H](OC)C(=O)[C@H](C)C[C@H](C)/C=C/C=C/C=C/1C [rapamycin]
CTG-3D luminescence at 96 h
Details | 12.5 pM | 0.00025 µM | 0.005 µM | 0.1 µM | 1 µM | 10 µM | 100 µM | 625 fM
[1], days in culture: 365 | 2.01 | 1.51 | 1.8 | 1.8 | 1.28 | 1.67 | 0.0179 | 1.4
[1], days in culture: 397 | 1.46 | 1.71 | 1.53 | 1.84 | 1.22 | 1.87 | 0.017 | 1.1
[1], days in culture: 401 | 1.07 | 1.45 | 1.1 | 1.26 | 0.98 | 1.23 | 0.00642 | 0.961
[2], days in culture: 333 | 1.29 | 0.897 | 0.593 | 1.1 | 0.612 | 0.447 | 0.0119 | 1.04
[2], days in culture: 355 | 1.27 | 2.02 | 0.979 | 1.55 | 1.15 | 1.05 | 0.0149 | 1.06
[2], days in culture: 369 | 1.79 | 1.03 | 1.2 | 1.39 | 1.48 | 0.955 | 0.00715 | 1.62
[3], days in culture: 214 | 2.2 | 1.93 | 1.66 | 1.12 | 1.43 | 1.48 | 0.0123 | 1.33
[3], days in culture: 243 | 1.69 | 1.66 | 1.47 | 1.74 | 1.31 | 1.75 | 0.0176 | 1.93
[3], days in culture: 256 | 2.19 | 1.95 | 1.54 | 1.81 | 1.91 | 1.19 | 0.0101 | 2.38
[3], days in culture: 284 | 1.84 | 2.05 | 1.19 | 1.44 | 1.29 | 1.76 | 0.0121 | 3.62
[4], days in culture: 79 | 1.09 | 1.02 | 1.11 | 1.13 | 0.996 | 0.98 | 0.00731 | 1.13
[4], days in culture: 86 | 1.91 | 1.75 | 1.61 | 1.37 | 1.45 | 1.46 | 0.0226 | 2.35
[4], days in culture: 102 | 0.91 | 0.799 | 0.831 | 0.806 | 0.875 | 0.636 | 0.00488 | 0.865
[4], days in culture: 164 | 1.39 | 1.27 | 1.02 | 0.996 | 1.17 | 0.924 | 0.0097 | 1.26

CTG-3D luminescence at 96 h
Details | 12.5 pM | 0.00025 µM | 0.005 µM | 0.1 µM | 1 µM | 10 µM | 100 µM | 625 fM
[5] | 1.08 | 1.04 | 0.947 | 0.798 | 1.03 | 0.994 | 0.0195 | 1.32
[6] | 1.21 | 1.28 | 1.46 | 1.72 | 1.73 | 1.49 | 0.0167 | 1.52
[7] | 4.67 | 4.8 | 4.88 | 4.66 | 4.92 | 4.59 | 0.0454 | –

CCOc1ccn(-c2ccc(F)cc2)c(=O)c1C(=O)Nc1ccc(Oc2ccnc(N)c2Cl)c(F)c1 [ASLAN002]
CTG-3D luminescence at 96 h
Details | 12.5 pM | 0.00025 µM | 0.005 µM | 0.1 µM | 1 µM | 10 µM | 100 µM | 625 fM
[1], days in culture: 365 | 2.86 | 2.78 | 2.5 | 3.1 | 2.44 | 1.84 | 1.6 | 1.69
[1], days in culture: 397 | 1.79 | 2.1 | 2.38 | 1.93 | 2.27 | 2.43 | 1.01 | 1.87
[1], days in culture: 401 | 1.59 | 1.66 | 1.76 | 1.83 | 1.66 | 1.29 | 0.84 | 1.76
[2], days in culture: 333 | 1.68 | 1.64 | 0.866 | 1.08 | 0.841 | 0.711 | 0.501 | 1.57
[2], days in culture: 355 | 1.87 | 3.41 | 1.5 | 1.76 | 1.71 | 2.18 | 0.883 | 2.05
[2], days in culture: 369 | 2.27 | 1.62 | 2.12 | 1.97 | 2.23 | 1.38 | 1.18 | 1.94
[3], days in culture: 214 | 1.99 | 2.84 | 1.41 | 1.72 | 1.55 | 2.81 | 0.653 | 2.47
[3], days in culture: 243 | 1.95 | 2.84 | 1.9 | 2.45 | 2.19 | 3.71 | 1.7 | 2.43
[3], days in culture: 256 | 1.93 | 1.9 | 1.8 | 2.77 | 1.71 | 1.78 | 1.29 | 2.4
[3], days in culture: 284 | 1.86 | 2.58 | 1.82 | 2.49 | 2.18 | 2.98 | 1.4 | 2.81
[4], days in culture: 79 | 1.78 | 1.68 | 1.94 | 2.05 | 1.8 | 1.55 | 0.742 | 1.97
[4], days in culture: 86 | 2.24 | 2.35 | 2.82 | 2.77 | 2.48 | 2.23 | 0.77 | 2.51
[4], days in culture: 102 | 1.1 | 1.26 | 1.21 | 1.48 | 1.41 | 1.14 | 0.252 | 0.941
[4], days in culture: 164 | 1.62 | 1.61 | 1.72 | 1.74 | 1.66 | 1.3 | 0.248 | 1.36

CTG-3D luminescence at 96 h
Details | 12.5 pM | 0.00025 µM | 0.005 µM | 0.1 µM | 1 µM | 10 µM | 100 µM | 625 fM
[5] | 2.68 | 2.58 | 2.76 | 2.78 | 2.47 | 1.97 | 1.09 | 2.78
[6] | 1.72 | 2.16 | 2.37 | 2.74 | 2.59 | 2.35 | 1.45 | 2.25
[7] | 5.15 | 5.18 | 5.26 | 5.15 | 5.49 | 4.89 | 3.8 | 5.36

— the supplement of paper PMC8882468
